Data on two compounds can be found in patent US6627408B1, “Antifungal assay” (Cytokinetics, Inc., priority 2000, dated 2003).

Assay [1] deals with T1, A. nidulans bimC motor domain (Emericella nidulans, UniProt P17120).
T1 construct: ATPase (bimC kinesin motor domain); made in house; host or cells: bacteria
T1 sequence (P17120 81-416 limits assumed): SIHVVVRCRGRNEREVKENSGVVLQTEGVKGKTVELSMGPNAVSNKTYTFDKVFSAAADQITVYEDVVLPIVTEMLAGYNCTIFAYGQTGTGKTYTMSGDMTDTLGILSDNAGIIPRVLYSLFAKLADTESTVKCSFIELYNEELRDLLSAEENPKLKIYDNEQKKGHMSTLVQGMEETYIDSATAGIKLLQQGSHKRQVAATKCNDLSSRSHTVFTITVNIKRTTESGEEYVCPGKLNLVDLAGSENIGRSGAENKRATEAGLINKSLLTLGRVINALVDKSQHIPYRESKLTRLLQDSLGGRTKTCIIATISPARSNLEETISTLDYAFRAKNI
Nature of the assay: ATPase assay of bimC motor domain (ATP hydrolysis, ADP or phosphate readout). As to conditions: bimC kinesin motor domain; motor domain fragment cloned and expressed in bacteria; FIG. 14. It is filed as biochemical, Aspergillus nidulans. The text has this:
FIG. 12 depicts the cloning and expression of A. nidulans bimC motor domain. In Panel A, an overview of the express is shown. The fragment containing the bimC motor domain is indicated by a filled semi-circle. In B, a Coomassie stained gel of the purification of bimC motor domain is shown.
Aspergillus nidulans bimC is a kinesin related protein (KRP) whose gene product encodes an essential mitotic KRP. BimC is the founding member of the bimC subfamily of mitotic kinesins (Morris NR, Enos AP. (1992) Trends Genet 8:1 32-7). Mutants in bimC are blocked in mitosis and arrest with duplicated but unseparated spindle poles. (Enos AP, Morris NR. (1990) Cell 60:6 1019-27). Following the discovery that bimC encodes a KRP, several bimC family members have been identified in diverse organisms ranging from yeast to humans. See. FIG. 1. […]
In a particularly preferred embodiment, a fragment of the bimC protein comprising its hydrolytically active “motor” domain is used. This motor domain has been cloned and expressed in bacteria such that large quantities of biochemically active, substantially pure protein are available (FIG. 12). […]
In a preferred embodiment, activity is measured by the methods disclosed in Serial No. 09/314,464, filed May 18, 1999, which is incorporated herein by reference in its entirety. […] The presence of ADP or inorganic phosphate release is used as the readout for protein activity. […]

The next assay deals with fungal tubulin. Conditions: cited from earlier work.
Another assay relates to mammalian tubulin. As to conditions: cited from earlier work.

In general, IC50 refers to the midpoint of a concentration-inhibition curve. Higher therefore signals weaker potency.

As to `O=C1OC(c2ccco2)=N/C1=C\c1ccc(Br)s1` [D00018 row 1], the IC50 in assay [1] came to 25 µM.
Take `CCCCNC(=O)n1c(NC(=O)OC)nc2ccccc21` [benomyl]: the “inhibition of fungal tubulin” value in the assay on fungal tubulin is given as “potent inhibitor”. Further, the “effect on mammalian tubulin” value in the assay with mammalian tubulin is given as “no effect”.
